For one assay, the system named is heart of O. vulgaris. Nature of the assay: Measurement of the heart beat activity of O. vulgaris (isolated cannulated heart). Also noted: species or system Octopus vulgaris. The settings on record: for variation of the heart beat of O. vulgaris (heart rate and amplitude): 10^-5 M added to the chamber (FIG. 3). The procedure: The heart beat activity of O. vulgaris was measured according to the method proposed by Morishita, et al. (Fumihiro Morishita, Biochem. Biophys. Res. Commun., 240, 354-358 (1997)). Specifically, the heart was taken from O. vulgaris and the atria were removed from the heart. A cannula was inserted from each atrium into the ventricle and was at the same time connected to a chamber (80 ml in volume) by tying with a cotton thread. The aorta was pinched to prevent leakage of liquid from the ventricle and was connected to a tension transducer. This completed preparation of the heart to serve as a specimen for the assay. Each cannula was adjusted to permit a 1 to 2 ml/min flow of artificial sea water (containing 0.1% glucose). Each of the analytes to be assayed was dissolved in 1 ml of the same artificial sea-water, and the resulting solution was injected into the heart through the cannulae. The variation of the heart beat was recorded.
As test compounds, Compound (1) isolated from the brains of O. vulgaris, Compound (2), and cGnRH-II, a vertebrate GnRH isolated from chickens and used to derive Compound (2) therefrom, were used.

The subject of assay [1] is Cells taken from the pituitary glands of quails. Description: Release of luteinizing hormone (LH) from cultured quail pituitary gland cells, radioimmunoassay. The note with it: final concentrations 0, 10^-9 to 10^-5 M, 4 hrs incubation, one-way ANOVA (FIG. 4). The assay is classed as cell-based. As to the method:
Cells taken from the pituitary glands of quails were inoculated onto a 24-well plate at 7.5×10^5 cells/well (substantially equivalent to two animals). The cells were then incubated for 3 days in a culture medium containing fetal calf serum. The cells were incubated for another 24 hrs in 1 ml serum-free medium. After the incubation period, the peptide solution was added to the culture medium to final concentrations of 0, 10^−9, 10^−8, 10^−7, 10^−6 and 10^−5 M, respectively, and the cultures were further incubated for 4 hrs. The supernatant was then collected from each culture. For each concentration, 5 samples were subjected to radioimmunoassay and measurements were taken. The data were statistically analyzed by one-way analysis of variance (ANOVA).

Square brackets hold non-standard residues; d marks the D form. pGlu = O=C1CC[C@@H](C(=O)O)N1

As to “cGnRH-II: chicken-II-type GnRH, a vertebrate decapeptide GnRH isolated from chickens, used to derive Compound (2) ([pGlu]HWSHGWYPG-NH2; ends and bridges not checked; UniProt P68072 1-10, looked up) [reference compound]”, in the assay on heart of O. vulgaris, the “variation of the heart beat of O. vulgaris (heart rate and amplitude)” value is listed as “did not have any effect on the heart rate or the amplitude of the heart beat of O. vulgaris”. For the substance “<Glu-Asn-Tyr-His-Phe-Ser-Asn-Gly-Trp-His-Pro-Gly-NH2 ([pGlu]NYHFSNGWHPG-NH2; listed as Octopus vulgaris) [Compound (1)]”, the “release of luteinizing hormone (LH)” value in assay [1] is “significantly increased the release of luteinizing hormone (LH)”. For the same substance, the “variation of the heart beat of O. vulgaris” value in the assay with heart of O. vulgaris (amount of Compound (1) corresponding to one specimen of O. vulgaris added to the chamber (FIG. 2)) is “enhanced the heart beat of O. vulgaris”. Besides, the “cardioactivity toward the heart beat of O. vulgaris, synthetic versus naturally-occurring peptide” value in the assay on heart of O. vulgaris (purified synthetic peptide of Example 3) is reported as “same cardioactivity toward the heart beat of O. vulgaris as did the naturally-occurring peptide”.

In the case of “<Glu-Asn-Tyr-His-Trp-Ser-His-Gly-Trp-Tyr-Pro-Gly-NH2 ([pGlu]NYHWSHGWYPG-NH2; SMILES NC(=O)CNC(=O)[C@@H]1CCCN1C(=O)[C@H](Cc1ccc(O)cc1)NC(=O)[C@H](Cc1c[nH]c2ccccc12)NC(=O)CNC(=O)[C@H](Cc1c[nH]cn1)NC(=O)[C@H](CO)NC(=O)[C@H](Cc1c[nH]c2ccccc12)NC(=O)[C@H](Cc1c[nH]cn1)NC(=O)[C@H](Cc1ccc(O)cc1)NC(=O)[C@H](CC(N)=O)NC(=O)[C@@H]1CCC(=O)N1) [Compound (2), cGnRH-II with Asn-Tyr inserted between the first <Glu and the second His residues]”, the “variation of the heart beat of O. vulgaris (heart rate and amplitude)” value in the assay with heart of O. vulgaris is “enhanced the heart beat of O. vulgaris by increasing both the heart rate and the amplitude of the heart beat”. For “<Glu-His-Phe-Ser-Asn-Gly-Trp-His-Pro-Gly-NH2 ([pGlu]HFSNGWHPG-NH2; SMILES NC(=O)CNC(=O)[C@@H]1CCCN1C(=O)[C@H](Cc1c[nH]cn1)NC(=O)[C@H](Cc1c[nH]c2ccccc12)NC(=O)CNC(=O)[C@H](CC(N)=O)NC(=O)[C@H](CO)NC(=O)[C@H](Cc1ccccc1)NC(=O)[C@H](Cc1c[nH]cn1)NC(=O)[C@@H]1CCC(=O)N1; listed as Octopus vulgaris) [Compound (3), decapeptide obtained by deletion of amino acids 2 and 3 from the N-terminal region of Compound (1)]”, in assay [1], the “release of luteinizing hormone (LH)” value was “increase the release of luteinizing hormone (LH)”.

(Values after US20080280326A1, “Novel Gonadotropin-Releasing Hormone, Precursor Peptides Thereof and Genes Encoding the Same” (SUNTORY LIMITED, priority 2000, published 2008).)
